11 compounds from PMC4319993 (Nature, 2014) can be followed below.

For one experiment, the system named is R. palustris LCC (RpLCC). In words: coupled ATPase assay. The format is biochemical, Rhodopseudomonas palustris. To be noted: 1.5 mM ATP, 40 mM KHCO3, 10 mM MgCl2, 200 mM KCl, 100 mM Hepes pH 7.5; 0.25 uM enzyme.
Experiment [1] addresses Mycobacterium avium subspecies paratuberculosis long-chain acyl-CoA carboxylase (Mycobacterium avium subspecies paratuberculosis). The experiment is described as follows: crystal structure.
Experiment [2] has the same target. The experiment is described as follows: crystal structure. The source holds these as a separate data set.
The target is the same in experiment [3]. The experiment is described as follows: SEC. In general terms: Size exclusion chromatography separates by hydrodynamic size, large species first.
Experiment [4] concerns the target Rhodopseudomonas palustris long-chain acyl-CoA carboxylase (Rhodopseudomonas palustris). The experiment is described as follows: SEC.

By Km is commonly meant the concentration of substrate that gives half-maximal velocity. As to `CC(=O)SCCNC(=O)CCNC(=O)[C@H](O)C(C)(C)COP(=O)(O)OP(=O)(O)OC[C@H]1O[C@@H](n2cnc3c(N)ncnc32)[C@H](O)[C@@H]1OP(=O)(O)O` [Acetyl-CoA], in the experiment with R. palustris LCC (RpLCC), the Km turned out to be 2000 ± 300 µM.
With `CCCC(=O)SCCNC(=O)CCNC(=O)[C@H](O)C(C)(C)COP(=O)(O)OP(=O)(O)OC[C@H]1O[C@@H](n2cnc3c(N)ncnc32)[C@H](O)[C@@H]1OP(=O)(O)O` [Butyryl-CoA], the Km in the experiment on R. palustris LCC (RpLCC) came out at 820 ± 160 µM.
On to `CCCCCCCCCC(=O)SCCNC(=O)CCNC(=O)[C@H](O)C(C)(C)COP(=O)(O)OP(=O)(O)OC[C@H]1O[C@@H](n2cnc3c(N)ncnc32)[C@H](O)[C@@H]1OP(=O)(O)O` [Decanoyl-CoA], for which the Km with R. palustris LCC (RpLCC) was determined as 33 ± 5 µM.
The same measure, in the same setting: with `CCCCCC(=O)SCCNC(=O)CCNC(=O)[C@H](O)C(C)(C)COP(=O)(O)OP(=O)(O)OC[C@H]1O[C@@H](n2cnc3c(N)ncnc32)[C@H](O)[C@@H]1OP(=O)(O)O` [Hexanoyl-CoA] the figure was 200 ± 40 µM.
The same measure, in the same setting: in the case of `CCCCCCCCCCCC(=O)SCCNC(=O)CCNC(=O)[C@H](O)C(C)(C)COP(=O)(O)OP(=O)(O)OC[C@H]1O[C@@H](n2cnc3c(N)ncnc32)[C@H](O)[C@@H]1OP(=O)(O)O` [Lauroyl-CoA] it was 19 ± 3 µM; in that of `CCCCCCCCCCCCCC(=O)SCCNC(=O)CCNC(=O)[C@H](O)C(C)(C)COP(=O)(O)OP(=O)(O)OC[C@H]1O[C@@H](n2cnc3c(N)ncnc32)[C@H](O)[C@@H]1OP(=O)(O)O` [Myristoyl-CoA], 26 ± 2 µM.
As to `CCCCCCCC(=O)SCCNC(=O)CCNC(=O)[C@H](O)C(C)(C)COP(=O)(O)OP(=O)(O)OC[C@H]1O[C@@H](n2cnc3c(N)ncnc32)[C@H](O)[C@@H]1OP(=O)(O)O` [Octanoyl-CoA], the Km with R. palustris LCC (RpLCC) stood at 370 ± 60 µM.
Still for that read-out and setting: with `CCCCCCCCCCCCCCCC(=O)SCCNC(=O)CCNC(=O)[C@H](O)C(C)(C)COP(=O)(O)OP(=O)(O)OC[C@H]1O[C@@H](n2cnc3c(N)ncnc32)[C@H](O)[C@@H]1OP(=O)(O)O` [Palmitoyl-CoA] the figure was 5.8 ± 0.5 µM; with `CCC(=O)SCCNC(=O)CCNC(=O)[C@H](O)C(C)(C)COP(=O)(O)OP(=O)(O)OC[C@H]1O[C@@H](n2cnc3c(N)ncnc32)[C@H](O)[C@@H]1OP(=O)(O)O` [Propionyl-CoA], 2200 ± 500 µM.
A word on the stoichiometry N: it is the number of molecules, sites or subunits per partner or assembly. As for “Mycobacterium avium subspecies paratuberculosis long-chain acyl-CoA carboxylase (enzyme)”, the stoichiometry N in experiment [1], in experiment [2] and in experiment [3] was 6 throughout.
In the case of “Rhodopseudomonas palustris long-chain acyl-CoA carboxylase (enzyme)”, the stoichiometry N in experiment [4] amounted to 6.
